What all share (assay): Post-emergence efficacy of compounds of Formula (I) (B1), glasshouse
Common to all, as to assay type: in vivo

Assay [1] relates to Ipomoea hederacea (IPOHE). To be noted: Ipomoea hederacea, post-emergence, 312 h, Application Rate 500 g/Ha; evaluated after 13 days; read-out: Control of IPOHE after post-emergence application (100=total damage to plant; 0=no damage to plant). Here is the method:
(§1) Seeds of a variety of test species were sown in standard Iaom-based soil in pots:— Ipomoea hederacea (IPOHE), Euphorbia heterophylla (EPHHL), Chenopodium album (CHEAL), Amaranthus palmeri (AMAPA), Lolium perenne (LOLPE), Digitaria sanguinalis (DIGSA), Eleusine indica (ELEIN), Echinochloa crus-galli (ECHCG), Setaria faberi (SETFA). After cultivation for 14 days (post-emergence) under controlled conditions in a glasshouse (at 24/16° C., day/night; 14 hours light; 65% humidity), the plants were sprayed with an aqueous spray solution derived from the dissolution of the technical active ingredient Formula (I) in a small amount of acetone and a special solvent and emulsifier mixture referred to as IF50 (11.12% Emulsogen EL360 TM+44.44% N-methylpyrrolidone+44.44% Dowanol DPM glycol ether), to create a 50 g/I solution which was then diluted to required concentration using 0.25% or 1% Empicol ESC70 (Sodium lauryl ether sulphate)+1% ammonium sulphate as diluent. The delivery of the aqueous spray solution was via a laboratory track sprayer which delivered the aqueous spray composition at a rate of 200 litres per hectare, using a flat fan nozzle (Teejet 11002VS) and an application volume of 200 litre/ha (at 2 bar).
(§2) The test plants were then grown in a glasshouse under controlled conditions (at 24/16° C., day/night; 14 hours light; 65% humidity) and watered twice daily. After 13 days the test was evaluated (100=total damage to plant; 0=no damage to plant).

Assay [2] deals with Echinochloa crus-galli (ECHCG). To be noted: Echinochloa crus-galli, post-emergence, 312 h, Application Rate 500 g/Ha; evaluated after 13 days; read-out: Control of ECHCG after post-emergence application (100=total damage to plant; 0=no damage to plant). The procedure: as §1, §2
In assay [3] the test system is Euphorbia heterophylla (EPHHL). To be noted: Euphorbia heterophylla, post-emergence, 312 h, Application Rate 500 g/Ha; evaluated after 13 days; read-out: Control of EPHHL after post-emergence application (100=total damage to plant; 0=no damage to plant). The procedure:
as §1, §2

A further assay deals with Eleusine indica (ELEIN). To be noted: Eleusine indica, post-emergence, 312 h, Application Rate 500 g/Ha; evaluated after 13 days; read-out: Control of ELEIN after post-emergence application (100=total damage to plant; 0=no damage to plant). The procedure:
as §1, §2

Assay [4] deals with Amaranthus palmeri (AMAPA). To be noted: Amaranthus palmeri, post-emergence, 312 h; Application Rate 500 g/Ha; evaluated after 13 days; read-out: Control of AMAPA after post-emergence application (100=total damage to plant; 0=no damage to plant). The procedure: as §1, §2
Another assay relates to Lolium perenne (LOLPE). To be noted: Lolium perenne, post-emergence, 312 h, Application Rate 500 g/Ha; evaluated after 13 days; read-out: Control of LOLPE after post-emergence application (100=total damage to plant; 0=no damage to plant). The procedure: as §1, §2
The subject of another assay is Setaria faberi (SETFA). To be noted: Setaria faberi, post-emergence, 312 h, Application Rate 500 g/Ha; evaluated after 13 days; read-out: Control of SETFA after post-emergence application (100=total damage to plant; 0=no damage to plant). The procedure:
as §1, §2

Assay [5] deals with Digitaria sanguinalis (DIGSA). To be noted: Digitaria sanguinalis, post-emergence, 312 h; Application Rate 500 g/Ha; evaluated after 13 days; read-out: Control of DIGSA after post-emergence application (100=total damage to plant; 0=no damage to plant). Here is the method:
as §1, §2

For assay [6], the system named is Chenopodium album (CHEAL). To be noted: Chenopodium album, post-emergence, 312 h, Application Rate 500 g/Ha; evaluated after 13 days; read-out: Control of CHEAL after post-emergence application (100=total damage to plant; 0=no damage to plant). Here is the method:
as §1, §2

The structures appear in SMILES notation.

For `N[C@H](CC[n+]1ccc(-c2ncccn2)cn1)C(=O)O` [Compound 1.029, [(1R)-1-carboxy-3-(4-pyrimidin-2-ylpyridazin-1-ium-1-yl)propyl]-ammonium 2,2,2-trifluoroacetate], the pest or weed control at 500 g/ha in [1] is 90%; in [2], 60%; in [3], 90%; in the assay with Eleusine indica (ELEIN), 100%; in assay [4], 100%; in the assay on Lolium perenne (LOLPE), 20%. Moreover, the pest or weed control at 500 g/ha in the assay with Setaria faberi (SETFA) was 100%; in assay [5], 90%; in assay [6], 100%.

For `O=S(=O)([O-])CC(O)C[n+]1ccc(-c2ncccn2)cn1` (stereo not drawn) [Compound 1.028], the pest or weed control at 500 g/ha in assay [1] stood at 30%; in assay [2], 100%; in assay [3] it was 80%; in the assay with Eleusine indica (ELEIN), 100%; in assay [4], 100%; with Lolium perenne (LOLPE), 70%. Besides, the pest or weed control at 500 g/ha with Setaria faberi (SETFA) worked out at 100%; in [5] it was 90%; in assay [6], 90%.

For `N[C@@H](CCC[n+]1ccc(-c2ncccn2)cn1)C(=O)O` [Compound 1.030, [(1S)-1-carboxy-4-(4-pyrimidin-2-ylpyridazin-1-ium-1-yl)butyl]-ammonium dichloride], the pest or weed control at 500 g/ha came to 60% in assay [1]; 100% in [2]; 100% in [3]; 90% in the assay with Eleusine indica (ELEIN); 100% in [4]; 60% with Lolium perenne (LOLPE). Moreover, the pest or weed control at 500 g/ha (with Setaria faberi (SETFA); in assay [5]; in assay [6]) was 100% throughout.

Regarding `N#C[N-]C(=O)CC[n+]1ccc(-c2ncccn2)cn1` [Compound 1.033], the pest or weed control at 500 g/ha came out at 50% in [1]; 90% in [2]; 100% in [3]; 100% in the assay on Eleusine indica (ELEIN); 100% in [4]; 90% in the assay with Lolium perenne (LOLPE). Moreover, the pest or weed control at 500 g/ha came to 90% in the assay with Setaria faberi (SETFA), 100% in assay [5] and 100% in [6].

For the molecule `O=S(=O)([O-])CC[n+]1ccc(-c2ccnnc2)cn1` [Compound 1.006, 2-(4-pyridazin-4-ylpyridazin-1-ium-1-yl)ethanesulfonate], the pest or weed control at 500 g/ha in assay [1] was 100%; in assay [2], 60%; in [3], 100%; in the assay with Eleusine indica (ELEIN), 100%; in assay [4] it was 100%; in the assay with Lolium perenne (LOLPE) it was 80%. For the same molecule, the pest or weed control at 500 g/ha with Setaria faberi (SETFA) is 30%; in assay [5], 80%; in [6] it was 100%.

In the case of `O=C(O)CC[n+]1ccc(-c2ccncn2)cn1` [Compound 1.011], the pest or weed control at 500 g/ha turned out to be 100% in assay [1]; 90% in [2]; 100% in [3]; 100% in the assay with Eleusine indica (ELEIN); 100% in assay [4]; 70% with Lolium perenne (LOLPE). The pest or weed control at 500 g/ha with Setaria faberi (SETFA) came out at 100%; in [5], 90%; in assay [6], 100%.

With `O=C(CC[n+]1ccc(-c2ncccn2)cn1)Oc1ccccc1` [Compound 1.020], the pest or weed control at 500 g/ha came out at 30% in assay [1]; 90% in [2]; 80% in assay [3]; 100% in the assay on Eleusine indica (ELEIN); 100% in [4]; 80% in the assay on Lolium perenne (LOLPE). Also, the pest or weed control at 500 g/ha with Setaria faberi (SETFA) was determined as 100%; in assay [5], 100%; in assay [6] it was 80%.

Source of the values: patent publication US20220095618A1, “HERBICIDAL COMPOSITIONS” (SYNGENTA CROP PROTECTION AG, priority 2019, published 2022).
